From US20110224210A1, “NOVEL BIS-AMIDES AS ANTI-MALARIAL AGENTS” (priority 2008, published 2011)

Each compound was assayed on P. falciparum K1 (strain resistant to chloroquine and pyrimethamine), erythrocytic stages (assay: Plasmodium falciparum in vitro assay, [3H] hypoxanthine incorporation). Settings: Plasmodium falciparum, K1, P. falciparum strain K1; [3H] hypoxanthine incorporation; read-out: IC50 (nM) on K1.
Type: cell-based
Outline: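 K1 strain parasites grown in human red cells, 2.5% haematocrit, 0.3% parasitaemia, 37 °C, 4% CO2/3% O2; compounds in seven serial doubling dilutions.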
Work on CC(=O)N1CCN(c2ccc(CN(C(=O)C=Cc3ccc(C(F)(F)F)cc3)[C@@H](Cc3ccccc3)C(=O)N(C)CCOCc3cccc(C#N)c3)cc2)CC1 [Example 185, (S)-N-[4-(4-Acetyl-piperazin-1-yl)-benzyl]-N-(1-{[2-(3-cyano-benzyloxy)-ethyl]-methyl-carbamoyl}-2-phenyl-ethyl)-3-(4-trifluoromethyl-phenyl)-acrylamide, formic acid] yielded an IC50 of 19 nM. With COCCN(C)C(=O)[C@H](Cc1ccccc1)N(Cc1ccc(-c2ccccn2)cc1)C(=O)C=Cc1ccc(OC)nn1 [Example 82, (S)-N-{1-[(2-Methoxy-ethyl)-methyl-carbamoyl]-2-phenyl-ethyl}-3-(6-methoxy-pyridazin-3-yl)-N-(4-pyridin-2-yl-benzyl)-acrylamide] the IC50 was 99 nM. CCN(CC)c1ccc(CN(C)CCN(C)C(=O)[C@H](Cc2ccccc2)N(Cc2ccc(N3CCN(C(C)=O)CC3)cc2)C(=O)C=Cc2ccc(C(F)(F)F)cc2)cc1 [Example 239, (S)-N-[4-(4-Acetyl-piperazin-1-yl)-benzyl]-N-[1-({2-[(4-diethylamino-benzyl)-methyl-amino]-ethyl}-methyl-carbamoyl)-2-phenyl-ethyl]-3-(4-trifluoromethyl-phenyl)-acrylamide] was tested, and the IC50 was 61 nM. With COCCN(C)C(=O)[C@H](Cc1ccccc1)N(Cc1ccc(N2CCOCC2)nc1)C(=O)C=Cc1ccc(OC)cc1 [Example 159, (S)-N-{1-[(2-Methoxy-ethyl)-methyl-carbamoyl]-2-phenyl-ethyl}-3-(4-methoxy-phenyl)-N-(6-morpholin-4-yl-pyridin-3-ylmethyl)-acrylamide] the IC50 was 49 nM. Compound COCCN(C)C(=O)[C@H](Cc1ccccc1)N(Cc1ccc(-c2ccncc2)cc1)C(=O)C=Cc1ccc(Cl)nc1 [Example 99, (S)-3-(6-Chloro-pyridin-3-yl)-N-{1-[(2-methoxy-ethyl)-methyl-carbamoyl]-2-phenyl-ethyl}-N-(4-pyridin-4-yl-benzyl)-acrylamide] has an IC50 of 17 nM. For COCCN(C)C(=O)[C@H](Cc1ccccc1)N(Cc1ccc(-c2ccncc2)cc1)C(=O)C=Cc1ccc(OC)nc1 [Example 101, (S)-N-{1-[(2-Methoxy-ethyl)-methyl-carbamoyl]-2-phenyl-ethyl}-3-(6-methoxy-pyridin-3-yl)-N-(4-pyridin-4-yl-benzyl)-acrylamide], the IC50 was 8 nM. Compound CN(C)CCN(C)C(=O)[C@H](Cc1ccccc1)N(Cc1ccc(-c2ccccn2)cc1)C(=O)C=Cc1ccc(C(F)(F)F)cc1 [Example 171, (S)-N-{1-[(2-Dimethylamino-ethyl)-methyl-carbamoyl]-2-phenyl-ethyl}-N-(4-pyridin-2-yl-benzyl)-3-(4-trifluoromethyl-phenyl)-acrylamide] has an IC50 of 80 nM. In the case of COCCN(C)C(=O)[C@H](Cc1ccccc1)N(Cc1ccc(-c2ccccn2)cc1)C(=O)C=Cc1ccc(C(F)(F)F)cn1 [Example 89, (S)-N-{1-[(2-Methoxy-ethyl)-methyl-carbamoyl]-2-phenyl-ethyl}-N-(4-pyridin-2-yl-benzyl)-3-(5-trifluoromethyl-pyridin-2-yl)-acrylamide], the IC50 is reported as < 8 nM. With Cc1nc(C)c(C=CC(=O)N(Cc2ccc(-c3cncnc3)cc2)[C@@H](Cc2ccccc2)C(=O)N2CCC(N(C)C)CC2)s1 [Example 37, (S)-N-[1-Benzyl-2-(4-dimethylamino-piperidin-1-yl)-2-oxo-ethyl]-3-(2,4-dimethyl-thiazol-5-yl)-N-(4-pyrimidin-5-yl-benzyl)-acrylamide] the IC50 was 279 nM. Work on CC(C)N(CCNC(=O)[C@H](Cc1ccccc1)N(Cc1ccc(-c2ccccn2)cc1)C(=O)C=Cc1ccc(C(F)(F)F)cc1)C(C)C [Example 155] yielded an IC50 of 327 nM. With CC(=O)N1CCN(c2ccc(CN(C(=O)C=Cc3ccc(C(F)(F)F)cc3)[C@@H](Cc3ccccc3)C(=O)N(C)CCN(C)Cc3ccncc3)cc2)CC1 [Example 253, (S)-N-[4-(4-Acetyl-piperazin-1-yl)-benzyl]-N-(1-{methyl-[2-(methyl-pyridin-4-ylmethyl-amino)-ethyl]-carbamoyl}-2-phenyl-ethyl)-3-(4-trifluoromethyl-phenyl)-acrylamide] the IC50 was 19 nM.
